Reference: patent publication US7332476B2, “Pyridyl substituted ketolide antibiotics” (Novartis AG, priority 2003, dated 2008)
Converted amounts (≈) assume the structure as drawn.

Tests used:
Test in all cases: MIC, broth microdilution (NCCLS)
[1] = system: Enterococcus faecalis Enfa_29212; assay type: cell-based; conditions: Table 5, Strain ID C (Table 4): E. faecalis Enfa_29212
In short: (§1)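 NCCLS broth microdilution with 2-fold serial drug dilutions (methanol stocks diluted in water); inoculum 3×10^5–7×10^5 CFU/ml in CAMHB, with 2-5% lysed horse blood for S. pneumoniae. Incubation 18-24 h at 35° C., ambient air, except S. pneumoniae (5-10% CO2). MIC is lowest concentration preventing visible growth.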

[2] = system: Haemophilus influenzae Hain_49247; assay type: cell-based; conditions: Table 5, Strain ID L (Table 4): H. influenzae Hain_49247; unit assumed
[3] = system: Staphylococcus epidermidis Step_14990; assay type: cell-based; conditions: Table 5, Strain ID A (Table 4): S. epidermidis Step_14990; in µg/mL (unit assumed)
In short: as §1

[4] = system: Staphylococcus epidermidis Step_f50654; assay type: cell-based; conditions: Table 5, Strain ID B (Table 4): S. epidermidis Step_f50654 Pen S; in µg/mL (unit assumed)
In short: as §1

[5] = system: Streptococcus pneumoniae Stpn_Erm S 4297; assay type: cell-based; conditions: Table 5, Strain ID I (Table 4): S. pneumoniae Stpn_Erm S 4297
In short: as §1

[6] = system: Streptococcus pneumoniae Stpn_Mef S 3427; assay type: cell-based; conditions: Table 5, Strain ID K (Table 4): S. pneumoniae Stpn_Mef S 3427
In short: as §1

[7] = system: Streptococcus pyogenes Stpy_8668; assay type: cell-based; conditions: Table 5, Strain ID D (Table 4): S. pyogenes Stpy_8668
In short: as §1

[8] = system: Streptococcus pneumoniae Stpn_49619; assay type: cell-based; conditions: Table 5, Strain ID E (Table 4): S. pneumoniae Stpn_49619
In short: as §1

[9] = system: Streptococcus pneumoniae Stpn_297-749; assay type: cell-based; conditions: Table 5, Strain ID F (Table 4): S. pneumoniae Stpn_297-749 Pen R
In short: as §1

[10] = system: Streptococcus pneumoniae Stpn_280-962; assay type: cell-based; conditions: Table 5, Strain ID G (Table 4): S. pneumoniae Stpn_280-962 Pen S
In short: as §1

[11] = system: S. pneumoniae Stpn_Erm 6849; assay type: cell-based, Streptococcus pneumoniae; conditions: Table 5, Strain ID H (Table 4): S. pneumoniae Stpn_Erm 6849; unit assumed
In short: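 S. pneumoniae MIC by NCCLS broth microdilution in cation-adjusted Mueller-Hinton broth with 2-5% lysed horse blood, inoculum 3×10^5–7×10^5 CFU/ml, 2-fold drug dilutions. Incubated 18-24 hours at 35° C. in 5-10% CO2; MIC is lowest concentration preventing visible growth.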

[12] = system: Streptococcus pneumoniae Stpn_Mef 5654; assay type: cell-based; conditions: Table 5, Strain ID J (Table 4): S. pneumoniae Stpn_Mef 5654; in µg/mL (unit assumed)
In short: as §1

E. coli Esco_25922 = assay type: cell-based; conditions: Table 5, Strain ID M (Table 4): E. coli Esco_25922; unit assumed
Experimental: Strains. The bacterial isolates listed in Table 4 were cultivated from −70° C. frozen stocks by two consecutive overnight passages (P1, P2) at 35° C. on 5% blood agar (Remel, Lenexa, Kans.). Chocolate agar (Remel) is used for Haemophilus influenzae. H. influenzae and Streptococcus pneumoniae are incubated in 5-10% CO2
Drug Stock Preparation. To determine the amount of solvent to be used to give the desired final concentration, the formula “weight obtained in mg/final concentration in mg/ml” will be used. It will give the amount of solvent in ml needed to be added to give the desired concentration. For example, if 2.5 mg/ml is the desired concentration and the weight of compound is 13.7 mg, then the amount of solvent to be added is […]. Methanol is used as the solvent to dissolve the test compounds. Further dilution of stock is done in sterile, deionized water. Drug stocks are kept frozen at −70° C., protected from light.
Susceptibility Testing. MICs are determined by the broth microdilution method in accordance with the NCCLS guidelines. In brief, organism suspensions are adjusted to a 0.5 McFarland standard to yield a final inoculum between 3×10^5 and 7×10^5 CFU/ml. Drug dilutions and inocula are made in sterile, cation adjusted Mueller-Hinton Broth (CAMHB) (Remel) for all but S. pneumoniae [CAMHB with 2-5% lysed horse blood (Remel)] and H. influenzae [Haemophilus Test Medium (Remel)]. An inoculum volume of 100 μl is added to wells containing 100 μl of broth with 2-fold serial dilutions of drug. All inoculated microdilution trays are incubated in ambient air at 35° C. for 18-24 hours, except for S. pneumoniae, and H. influenzae (both at 5-10% CO2).
Following appropriate incubation, the MIC is determined and the MIC is defined as the lowest concentration of the drug that prevented visible growth.

| SMILES | MIC ([1]; in µg/mL (unit assumed)) | MIC [2] | MIC [3] | MIC [4] | MIC ([5]; unit assumed) | MIC ([6]; in µg/mL (unit assumed)) | MIC ([7]; unit assumed) | MIC ([8]; unit assumed) | MIC ([9]; unit assumed) | MIC ([10]; unit assumed) | MIC [11] | MIC [12] | MIC (E. coli Esco_25922) | MIC [8] | MIC [9] | MIC [10] | MIC [1] | MIC [5] | MIC [6] | MIC [7] |
| --- | --- | --- | --- | --- | --- | --- | --- | --- | --- | --- | --- | --- | --- | --- | --- | --- | --- | --- | --- | --- |
| CC[C@H]1OC(=O)[C@H](C)C(=O)[C@H](C)[C@@H](OC2O[C@H](C)C[C@H](N(C)C)[C@H]2O)[C@@](C)(OC)C[C@@H](C)C2=NCCN3C(=O)O[C@H]1[C@H]3[C@H]2C (some centres unmarked) [Compound 6222] | 0.4 | 25 µg/mL (≈ 40.1 µM) | 1.56 | 1.56 | > 50 µg/mL | 0.4 | 0.2 µg/mL (≈ 0.321 µM) | 0.2 µg/mL (≈ 0.321 µM) | 0.4 µg/mL (≈ 0.641 µM) | 0.2 µg/mL (≈ 0.321 µM) | > 50 µg/mL | 0.78 | 50 µg/mL (≈ 80.2 µM) | – | – | – | – | – | – | – |
| CC[C@H]1OC(=O)[C@H](C)C(=O)[C@H](C)[C@@H](OC2O[C@H](C)C[C@H](N(C)C)[C@H]2O)[C@@](C)(OC)C[C@@H](C)C(=O)[C@H](C)[C@@H]2[C@@H]1OC(=O)N2CCCn1cnc(-c2ccccc2)c1 (some centres unmarked) [Compound 4714] | 0.4 | > 50 µg/mL | 6.25 | 6.25 | 6.25 µg/mL (≈ 7.98 µM) | 0.1 | 0.1 µg/mL (≈ 0.128 µM) | – | – | – | > 50 µg/mL | 0.4 | > 50 µg/mL | =0.5 | =0.5 | =0.5 | – | – | – | – |
| CC[C@H]1OC(=O)[C@H](C)C(=O)[C@H](C)[C@@H](OC2O[C@H](C)C[C@H](N(C)C)[C@H]2O)[C@@](C)(OC)C[C@@H](C)C(=O)[C@H](C)[C@@H]2[C@@H]1OC(=O)N2CCCCn1cnc(-c2ccccc2)c1 (some centres unmarked) [Compound 6221] | – | 3.13 µg/mL (≈ 3.93 µM) | 0.1 | 0.1 | – | – | – | – | – | – | 0.1 µg/mL (≈ 0.125 µM) | 0.4 | 25 µg/mL (≈ 31.4 µM) | =0.05 | =0.05 | =0.05 | =0.05 | =0.05 | =0.05 | =0.05 |
| CC[C@H]1OC(=O)[C@H](C)C(=O)[C@H](C)[C@@H](OC2O[C@H](C)C[C@H](N(C)C)[C@H]2O)[C@@](C)(OC)C[C@@H](C)C(=O)[C@H](C)[C@@H]2[C@@H]1OC(=O)N2CCCCn1ccc2ccccc21 (some centres unmarked) [Compound 4717] | 0.1 | 6.25 µg/mL (≈ 8.12 µM) | 0.2 | 0.4 | 0.4 µg/mL (≈ 0.519 µM) | – | – | – | – | – | 6.25 µg/mL (≈ 8.12 µM) | 0.2 | > 50 µg/mL | =0.5 | =0.5 | =0.5 | – | – | =0.05 | =0.5 |
| CC[C@H]1OC(=O)[C@H](C)C(=O)[C@H](C)[C@@H](OC2O[C@H](C)C[C@H](N(C)C)[C@H]2O)[C@@](C)(OC)C[C@@H](C)C(=O)[C@H](C)[C@H]2N(CCCCn3cnc(-c4ccccc4)c3)C(=O)O[C@]12CC (some centres unmarked) [Compound 7281] | 0.1 | 3.13 µg/mL (≈ 3.79 µM) | 0.2 | 0.1 | – | – | – | – | – | – | 0.2 µg/mL (≈ 0.242 µM) | 0.4 | 25 µg/mL (≈ 30.3 µM) | =0.05 | =0.05 | =0.05 | – | =0.05 | =0.05 | =0.05 |
| CC[C@H]1OC(=O)[C@H](C)C(=O)[C@H](C)[C@@H](OC2O[C@H](C)C[C@H](N(C)C)[C@H]2O)[C@@](C)(OC)C[C@@H](C)C(=O)[C@H](C)[C@@H]2[C@@H]1OC(=O)N2CCCCc1ccc2ccccc2n1 (some centres unmarked) [Compound 5960] | – | 3.13 µg/mL (≈ 4 µM) | 0.2 | 0.2 | 0.1 µg/mL (≈ 0.128 µM) | – | – | – | – | – | 25 µg/mL (≈ 32 µM) | 0.2 | 25 µg/mL (≈ 32 µM) | =0.05 | =0.05 | =0.05 | =0.05 | – | =0.05 | =0.05 |
| CC[C@H]1OC(=O)[C@H](C)C(=O)[C@H](C)[C@@H](OC2O[C@H](C)C[C@H](N(C)C)[C@H]2O)[C@@](C)(OC)C[C@@H](C)C2=N[C@@H](C)CN3C(=O)O[C@H]1[C@H]3[C@H]2C (some centres unmarked) [Compound 6223] | 0.78 | > 50 µg/mL | 1.56 | 3.13 | > 50 µg/mL | 0.4 | 0.2 µg/mL (≈ 0.314 µM) | 0.2 µg/mL (≈ 0.314 µM) | 0.2 µg/mL (≈ 0.314 µM) | 0.2 µg/mL (≈ 0.314 µM) | > 50 µg/mL | 0.78 | 50 µg/mL (≈ 78.4 µM) | – | – | – | – | – | – | – |
| CC[C@H]1OC(=O)[C@H](C)C(=O)[C@H](C)[C@@H](OC2O[C@H](C)C[C@H](N(C)C)[C@H]2O)[C@@](C)(OC)C[C@@H](C)C(=O)[C@H](C)[C@@H]2[C@@H]1OC(=O)N2CCCCc1ccnc2ccccc12 (some centres unmarked) [Compound 4711] | – | 1.56 µg/mL (≈ 1.99 µM) | 0.1 | 0.1 | 0.2 µg/mL (≈ 0.256 µM) | – | – | – | – | – | 6.25 µg/mL (≈ 7.99 µM) | 0.1 | 50 µg/mL (≈ 63.9 µM) | =0.5 | =0.5 | =0.5 | =0.05 | – | =0.5 | =0.5 |
